# What was measured:
# SK-N-MC [1] = experiment: Antiproliferative activity at human SK-N-MC cells after 72 hrs by MTT assay; assay type: functional, cell-based
# A549 [2] = experiment: Antiproliferative activity at human A549 cells after 72 hrs by MTT assay; assay type: functional, cell-based; settings: Homo sapiens, A549, 72 h
# DMS-53 = experiment: Antiproliferative activity at human DMS53 cells after 72 hrs by MTT assay; assay type: functional, cell-based
# A549 [3] = experiment: Ratio of compound IC50 to Dp44mT IC50 for human A549 cells; assay type: functional
# SK-N-MC [4] = experiment: Ratio of Dp4mT IC50 to compound IC50 for human SK-N-MC cells; assay type: functional
IC50 (A549 [2]) [nM],SMILES,IC50 (SK-N-MC [1]) [nM],"IC50 (DMS-53; Homo sapiens, DMS-53, 72 h) [nM]",Ratio IC50 (A549 [3]),IC50 (DMS-53; dms-53) [nM],Ratio IC50 (SK-N-MC [4])
–,CNC(=S)N/N=C(\c1ccccc1)c1ccccn1,18,–,–,–,–
800,COc1cc([C@@H]2c3cc4c(cc3[C@@H](O[C@@H]3O[C@@H]5CO[C@@H](C)O[C@H]5[C@H](O)[C@H]3O)[C@H]3COC(=O)[C@H]23)OCO4)cc(OC)c1O [ETOPOSIDE],–,1500,–,–,–
–,CN(C(=S)NN=C(c1ccccn1)c1ccccn1)C1CCCCC1,13,–,5,8,23
